In patent US20250195521A1 (Revolution Medicines, Inc., priority 2020, published 2025):
pEC50, pIC50: −log10 of the molar value. Where “and” joins values, the source holds several entries; their conditions need not be identical. Identical values can stand only once. Like-named read-outs stand apart in the source and are kept apart here.

Legend:
[1] = tested on: NCI-H358 cells (K-Ras G12C); assay: CellTiter-Glo cell viability, NCI-H358; type: cell-based, human; conditions: Homo sapiens, NCI-H358, 120 h, K-Ras G12C, 5-day treatment; read-out: H358 Cell Viability IC50
Procedure, shortened: (§1)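 Five-day treatment of K-Ras mutant cells with directly dispensed compound; ATP-based luminescence endpoint. Percent of DMSO signal fit to four-parameter logistic curve.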

KRAS G12C = KRAS G12C (Homo sapiens (Human), UniProt P01116+P62937, G12C); assay: Ras-Raf disruption/FRET/MOA assay (BRAF RBD, Cyclophilin A); type: biochemical; conditions: read-out: KRAS G12C FRET IC50
Procedure, shortened: (§2)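 TR-FRET read after 1.5 h with 10 nM anti-His Eu-W1024 and 50 nM anti-GST APC, following 3 h at 25 °C of GMPPNP-loaded His6-Ras (12.5 nM), GST-BRAF RBD (50 nM) and Cyclophilin A (25 μM) with compound from 30 μM final, 10 points, 3-fold. IC50 reported; pH 7.3 HEPES, 100 mM NaCl.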

KRAS G12D = KRAS G12D (Homo sapiens (Human), UniProt P01116+P62937, G12D); assay: as above; type: biochemical; conditions: read-out: KRAS G12D FRET IC50
Procedure, shortened: as §2

KRAS G12S = KRAS G12S (Homo sapiens (Human), UniProt P01116+P62937, G12S); assay: as above; type: biochemical; conditions: read-out: KRAS G12S FRET IC50
Procedure, shortened: as §2

KRAS G12V = KRAS G12V (Homo sapiens (Human), UniProt P01116+P62937, G12V); assay: as above; type: biochemical; conditions: read-out: KRAS G12V FRET IC50
Procedure, shortened: as §2

KRAS G13C = KRAS G13C (Homo sapiens (Human), UniProt P01116+P62937, G13C); assay: as above; type: biochemical; conditions: read-out: KRAS G13C FRET IC50
Procedure, shortened: as §2

KRAS G13D = KRAS G13D (Homo sapiens (Human), UniProt P01116+P62937, G13D); assay: as above; type: biochemical; conditions: read-out: KRAS G13D FRET data IC50
Procedure, shortened: as §2

KRAS WT = KRAS WT (Homo sapiens (Human), UniProt P01116+P62937); assay: as above; type: biochemical; conditions: read-out: KRAS WT FRET data IC50
Procedure, shortened: as §2

NRAS G12C = NRAS G12C (Homo sapiens (Human), UniProt P01111+P62937, G12C); assay: as above; type: biochemical; conditions: read-out: NRAS G12C FRET data IC50
Procedure, shortened: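 25 μM tagless Cyclophilin A, 12.5 nM His6-Ras-GMPPNP and 50 nM GST-BRAF RBD in HEPES pH 7.3 buffer with 5 mM MgCl2, with compound (10-point 3-fold series from 30 μM final) for 3 h at 25 °C. Anti-His Eu and anti-GST APC then added for 1.5 h. IC50 from TR-FRET ratio decrease versus DMSO.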

[2] = tested on: K-Ras G12C (NCI-H358 cells); assay: Potency assay: pERK in NCI-H358 cells; type: cell-based, human; conditions: Homo sapiens; NCI-H358 cells, 4 hours; read-out: pERK EC50 (H358 KRAS G12C)
Procedure, shortened: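 Cells plated the day before were exposed for 4 h at 37° C, 5% CO2 to a 10-point, 3-fold DMSO dilution series (10 mM top stock), in duplicate. Phospho-ERK was read by AlphaLISA SureFire Ultra or by In-Cell Western with DRAQ5 DNA stain, and IC50 came from a 4-parameter sigmoidal fit.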

NCI-H358 (K-Ras G12C) = assay: CellTiter-Glo cell viability assay, NCI-H358; type: cell-based, human; conditions: Homo sapiens, NCI-H358, 120 h, 5-day treatment; read-out: H358 Cell Viability assay data (K-Ras G12C, IC50)
Procedure, shortened: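 Five-day compound treatment of NCI-H358 cells, then CellTiter-Glo luminescence, percent of DMSO, four-parameter logistic fit.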

[3] = biological target: K-Ras G12C(GMP-PNP) binding to BRAF RBD (Homo sapiens (Human), UniProt P01116+P62937, G12C); assay: Disruption of BRAF RBD interaction with K-Ras (FRET / MOA assay), K-Ras G12C; type: biochemical
Excerpt: Note—The following protocol describes a procedure for monitoring disruption of K-Ras G12C(GMP-PNP) binding to BRAF^RBD by a compound of the invention. This protocol may also be executed substituting other Ras proteins or nucleotides.
The purpose of this biochemical assay was to measure the ability of test compounds to facilitate ternary complex formation between a nucleotide-loaded K-Ras isoform and Cyclophilin A; the resulting ternary complex disrupts binding to a BRAF^RBD construct, inhibiting K-Ras signaling through a RAF effector. Data is reported as IC50 values.
Compound was present in plate wells as a 10-point 3-fold dilution series starting at a final concentration of 30 μM. After incubation at 25° C. for 3 hours, a mixture of Anti-His Eu—W1024 and anti-GST allophycocyanin was then added to assay sample wells at final concentrations of 10 nM and 50 nM, respectively, and the reaction incubated for an additional 1.5 hours. […] Compounds that facilitate disruption of a K-Ras: RAF complex were identified as those eliciting a decrease in the TR-FRET ratio relative to DMSO control wells.

[4] = tested on: Capan-1 cells (K-Ras G12V); assay: CellTiter-Glo cell viability, Capan-1; type: cell-based, human; conditions: Homo sapiens, CAPAN-1, 120 h, K-Ras G12V, 5-day treatment; read-out: Capan-1 Cell Viability IC50
Procedure, shortened: as §1

Sequence of KRAS G12S (P01116 other isoform, or with tags, fused parts or gaps G12S): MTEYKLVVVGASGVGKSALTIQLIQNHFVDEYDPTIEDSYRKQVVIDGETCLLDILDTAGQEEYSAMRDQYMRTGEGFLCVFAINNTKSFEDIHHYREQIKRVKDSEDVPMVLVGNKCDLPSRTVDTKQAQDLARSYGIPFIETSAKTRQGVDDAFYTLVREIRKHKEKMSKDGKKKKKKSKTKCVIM
Sequence of KRAS G12S (P62937 whole entry): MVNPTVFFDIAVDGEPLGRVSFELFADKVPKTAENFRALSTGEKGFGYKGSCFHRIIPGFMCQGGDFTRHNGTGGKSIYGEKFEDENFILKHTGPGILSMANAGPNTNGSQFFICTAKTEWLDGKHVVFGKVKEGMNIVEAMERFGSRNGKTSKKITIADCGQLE
Sequence of KRAS G13C (P01116 other isoform, or with tags, fused parts or gaps G13C): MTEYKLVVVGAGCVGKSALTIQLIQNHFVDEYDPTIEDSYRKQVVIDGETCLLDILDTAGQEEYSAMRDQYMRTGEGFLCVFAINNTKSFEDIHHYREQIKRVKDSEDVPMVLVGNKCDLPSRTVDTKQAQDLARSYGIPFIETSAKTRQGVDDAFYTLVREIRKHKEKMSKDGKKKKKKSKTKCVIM
Sequence of KRAS G13C (P62937 whole entry): as the sequence (P62937 whole entry) above
Sequence of KRAS WT (P01116 other isoform, or with tags, fused parts or gaps): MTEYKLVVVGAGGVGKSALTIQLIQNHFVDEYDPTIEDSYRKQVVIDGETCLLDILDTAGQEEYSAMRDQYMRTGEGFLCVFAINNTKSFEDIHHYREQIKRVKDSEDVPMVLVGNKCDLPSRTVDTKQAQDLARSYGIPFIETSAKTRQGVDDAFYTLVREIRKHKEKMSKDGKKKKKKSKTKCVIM
Sequence of KRAS WT (P62937 whole entry): as the sequence (P62937 whole entry) above
Sequence of KRAS G12V (P01116 other isoform, or with tags, fused parts or gaps G12V): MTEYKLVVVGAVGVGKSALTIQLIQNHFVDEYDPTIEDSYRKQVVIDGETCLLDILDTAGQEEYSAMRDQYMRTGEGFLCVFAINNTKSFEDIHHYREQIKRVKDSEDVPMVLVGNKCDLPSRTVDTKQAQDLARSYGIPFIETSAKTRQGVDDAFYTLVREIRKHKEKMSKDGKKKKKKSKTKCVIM
Sequence of KRAS G12V (P62937 whole entry): as the sequence (P62937 whole entry) above
Sequence of NRAS G12C (P01111 whole entry G12C): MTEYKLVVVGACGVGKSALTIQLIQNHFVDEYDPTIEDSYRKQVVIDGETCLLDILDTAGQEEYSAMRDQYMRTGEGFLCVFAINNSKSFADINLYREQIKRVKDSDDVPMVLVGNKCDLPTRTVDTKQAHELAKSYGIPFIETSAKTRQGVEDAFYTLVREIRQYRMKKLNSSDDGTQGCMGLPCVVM
Sequence of NRAS G12C (P62937 whole entry): as the sequence (P62937 whole entry) above
Sequence of KRAS G12C (P01116-2 other isoform, or with tags, fused parts or gaps G12C): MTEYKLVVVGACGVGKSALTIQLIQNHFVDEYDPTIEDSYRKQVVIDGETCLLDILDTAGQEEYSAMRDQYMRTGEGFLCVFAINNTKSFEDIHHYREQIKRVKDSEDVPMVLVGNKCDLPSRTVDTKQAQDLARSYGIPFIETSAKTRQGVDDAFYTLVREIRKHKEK
Sequence of KRAS G12C (P62937 whole entry): as the sequence (P62937 whole entry) above
Sequence of K-Ras G12C(GMP-PNP) binding to BRAF RBD (P01116 other isoform, or with tags, fused parts or gaps G12C): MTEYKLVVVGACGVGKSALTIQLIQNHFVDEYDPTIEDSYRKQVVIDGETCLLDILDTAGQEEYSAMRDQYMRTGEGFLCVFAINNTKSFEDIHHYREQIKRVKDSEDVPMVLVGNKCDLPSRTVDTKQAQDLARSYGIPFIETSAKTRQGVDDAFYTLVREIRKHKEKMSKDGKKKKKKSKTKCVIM
Sequence of K-Ras G12C(GMP-PNP) binding to BRAF RBD (P62937 whole entry): as the sequence (P62937 whole entry) above
Sequence of KRAS G12D (P01116 other isoform, or with tags, fused parts or gaps G12D): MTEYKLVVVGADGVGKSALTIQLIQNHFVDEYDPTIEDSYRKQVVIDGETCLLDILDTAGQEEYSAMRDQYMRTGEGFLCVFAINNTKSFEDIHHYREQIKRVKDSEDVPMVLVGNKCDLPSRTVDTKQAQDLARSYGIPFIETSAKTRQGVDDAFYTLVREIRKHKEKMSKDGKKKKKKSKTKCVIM
Sequence of KRAS G12D (P62937 whole entry): as the sequence (P62937 whole entry) above
Sequence of KRAS G13D (P01116 other isoform, or with tags, fused parts or gaps G13D): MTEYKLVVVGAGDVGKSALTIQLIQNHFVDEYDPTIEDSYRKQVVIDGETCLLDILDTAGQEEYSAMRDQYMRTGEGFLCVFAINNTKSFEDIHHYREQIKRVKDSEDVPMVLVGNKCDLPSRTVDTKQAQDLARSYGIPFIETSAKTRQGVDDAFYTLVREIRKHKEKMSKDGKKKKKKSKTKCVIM
Sequence of KRAS G13D (P62937 whole entry): as the sequence (P62937 whole entry) above

| Compound | pIC50 [1] | pIC50 (KRAS G12C) | pIC50 (KRAS G12D) | pIC50 (KRAS G12S) | pIC50 (KRAS G12V) | pIC50 (KRAS G13C) | pIC50 (KRAS G13D) | pIC50 (KRAS WT) | pIC50 (NRAS G12C) | pEC50 [2] | pIC50 (NCI-H358 (K-Ras G12C)) | pIC50 ([3]; read-out: KRAS G12C FRET IC50) | pIC50 [4] | pIC50 ([3]; KRAS G12C FRET IC50) |
| --- | --- | --- | --- | --- | --- | --- | --- | --- | --- | --- | --- | --- | --- | --- |
| CCn1c(-c2cnccc2COC)c2c3cc(ccc31)-c1cc(O)cc(c1)C[C@H](NC(=O)[C@H](C(C)C)N(C)C(=O)[C@H]1CCN(C[C@H](C)O)C1)C(=O)N1CCC[C@H](N1)C(=O)OCC(C)(C)C2 [Compound A47] | < 5.00 | 6.00 to 7.00 | 5.00 to 6.00 | 6.00 to 7.00 | < 5.00 | 6.00 to 7.00 | 6.00 to 7.00 | 6.00 to 7.00 | 6.00 to 7.00 | > 5.30 | 7.00 to 8.00 | – | – | – |
| CCn1c(-c2cccnc2[C@H](C)OC)c2c3cc(ccc31)-c1csc(n1)C[C@H](NC(=O)[C@H](C(C)C)N(C)C(=O)[C@H]1CCN(C(=O)CN)C1)C(=O)N1CCC[C@H](N1)C(=O)OCC(C)(C)C2 [Compound A106] | – | – | – | – | – | – | – | – | – | – | – | 5.00 to 6.00 | – | – |
| CCn1c(-c2cnccc2COC)c2c3cc(ccc31)-c1cc(O)cc(c1)C[C@H](NC(=O)[C@H](C(C)C)N(C)C(=O)[C@@H](C)O)C(=O)N1CCC[C@H](N1)C(=O)OCC(C)(C)C2 [Compound A92] | 5.00 to 6.00 | 5.00 to 6.00 | 5.00 to 6.00 | 5.00 to 6.00 | 5.00 to 6.00 | 6.00 to 7.00 | 5.00 to 6.00 | 5.00 to 6.00 | 5.00 to 6.00 | – | 6.00 to 7.00 | – | < 5.00 | – |
| CCn1c(-c2cnccc2COC)c2c3cc(ccc31)-c1cc(O)cc(c1)C[C@H](NC(=O)[C@@H](NC(C)=O)C(C)C)C(=O)N1CCC[C@H](N1)C(=O)OCC(C)(C)C2 [Compound A58] | 5.00 to 6.00 | 5.00 to 6.00 | < 5.00 | 5.00 to 6.00 | 5.00 to 6.00 | 5.00 to 6.00 | 5.00 to 6.00 | 5.00 to 6.00 | 5.00 to 6.00 | > 5.30 | 7.00 to 8.00 | – | – | – |
| CCn1c(-c2cnccc2COC)c2c3cc(ccc31)-c1cc(O)cc(c1)C[C@H](NC(=O)[C@H](C(C)C)N(C)C(=O)c1ncc[nH]1)C(=O)N1CCC[C@H](N1)C(=O)OCC(C)(C)C2 [Compound A64] | 6.00 to 7.00 | 6.00 to 7.00 | 5.00 to 6.00 | 6.00 to 7.00 | 6.00 to 7.00 | 5.00 to 6.00 | 6.00 to 7.00 | 6.00 to 7.00 | 6.00 to 7.00 | > 5.30 | 7.00 to 8.00 | – | – | – |
| CCn1c(-c2cnccc2COC)c2c3cc(ccc31)-c1cc(O)cc(c1)C[C@H](NC(=O)[C@H](C(C)C)N(C)C(=O)[C@H]1CCN(C[C@@H](C)O)C1)C(=O)N1CCC[C@H](N1)C(=O)OCC(C)(C)C2 [Compound A31] | < 5.00 | 6.00 to 7.00 | 6.00 to 7.00 | 6.00 to 7.00 | 5.00 to 6.00 | 7.00 to 8.00 | 6.00 to 7.00 | 6.00 to 7.00 | 6.00 to 7.00 | > 5.30 | 7.00 to 8.00 | – | – | – |
| CCn1c(-c2cccnc2[C@H](C)OC)c2c3cc(ccc31)-c1cccc(c1)C[C@H](NC(=O)[C@H](C(C)C)N(C)C(=O)[C@H]1CCN(C(=O)C(C)(C)N(C)C)C1)C(=O)N1CCC[C@H](N1)C(=O)OCC(C)(C)C2 [Compound A112] | – | – | – | – | – | – | – | – | – | > 5.30 | – | 6.00 to 7.00 and > 8.00 | – | – |
| CCn1c(-c2cccnc2[C@H](C)OC)c2c3cc(ccc31)-c1cc(O)cc(c1)C[C@H](NC(=O)[C@H](C(C)C)N(C)C(=O)C1CCN3CCOCC13)C(=O)N1CCC[C@H](N1)C(=O)OCC(C)(C)C2 (stereo partly drawn) [Compound A123] | – | – | – | – | – | – | – | – | – | > 5.30 | – | – | – | 7.00 to 8.00 |
| CCn1c(-c2cnccc2COC)c2c3cc(ccc31)-c1cc(O)cc(c1)C[C@H](NC(=O)[C@H](C(C)C)N(C)C(=O)[C@H]1CCN(C3CCOCC3)C1)C(=O)N1CCC[C@H](N1)C(=O)OCC(C)(C)C2 [Compound A45] | 5.00 to 6.00 | 6.00 to 7.00 | 6.00 to 7.00 | 6.00 to 7.00 | < 5.00 | 6.00 to 7.00 | 7.00 to 8.00 | 6.00 to 7.00 | 5.00 to 6.00 | > 5.30 | 7.00 to 8.00 | – | – | – |
| C=CC(=O)N1CC[C@]2(CCCN([C@H](C(=O)N[C@H]3Cc4cc(O)cc(c4)-c4ccc5c(c4)c(c(-c4ccccc4CCOC)n5CC)CC(C)(C)COC(=O)[C@@H]4CCCN(N4)C3=O)C(C)C)C2)C1 [Compound A217] | – | – | – | – | – | – | – | – | – | > 5.30 | – | 6.00 to 7.00 and < 5.00 | – | – |
| CCn1c(-c2cccnc2[C@H](C)OC)c2c3cc(ccc31)-c1cc(O)cc(c1)C[C@H](NC(=O)[C@H](C(C)C)N(C)C(=O)O[C@H]1CCOC1)C(=O)N1CCC[C@H](N1)C(=O)OCC(C)(C)C2 [Compound A209] | – | – | – | – | – | – | – | – | – | – | – | 7.00 to 8.00 and > 8.00 | – | – |
| CCn1c(-c2cnccc2COC)c2c3cc(ccc31)-c1cc(O)cc(c1)C[C@H](NC(=O)[C@H](C(C)C)N(C)C(=O)[C@H]1CCN(C(=O)CO)C1)C(=O)N1CCC[C@H](N1)C(=O)OCC(C)(C)C2 [Compound A20] | 5.00 to 6.00 | 7.00 to 8.00 | 5.00 to 6.00 | 6.00 to 7.00 | 6.00 to 7.00 | 6.00 to 7.00 | 6.00 to 7.00 | 6.00 to 7.00 | 6.00 to 7.00 | > 5.30 | 7.00 to 8.00 | – | – | – |
| CCn1c(-c2cccnc2[C@H](C)OC)c2c3cc(ccc31)-c1csc(n1)C[C@H](NC(=O)[C@H](C(C)C)N(C)C(=O)N(C)C)C(=O)N1CCC[C@H](N1)C(=O)OCC(C)(C)C2 [Compound A136] | – | – | – | – | – | – | – | – | – | – | – | 5.00 to 6.00 | – | – |
| CCn1c(-c2cccnc2[C@H](C)OC)c2c3cc(ccc31)-c1cc(O)cc(c1)C[C@H](NC(=O)[C@H](C(C)C)N(C)C(=O)[C@H]1CCN(C)C1)C(=O)N1CCC[C@H](N1)C(=O)OCC(C)(C)C2 [Compound A100] | – | – | – | – | – | – | – | – | – | – | – | 5.00 to 6.00 | – | – |
